Calls of active or inactive are those of the source. The calls are words filed in the database; no cut-off is given here.

One data set has as its system MRC5. The data set can be described thus: Cytotoxicity against human MRC5 cells at <50 ug/ml. Format: cell-based.
A further data set relates to Staphylococcus aureus. The data set can be described thus: Antibacterial activity against Staphylococcus aureus ATCC 25923 after overnight incubation by photometric method. The data set is classed as functional.
Data set [1] concerns Enterococcus faecalis. Put plainly: Antibacterial activity against Enterococcus faecalis ATCC 29212 after overnight incubation by photometric method. Format: functional.
Data set [2] deals with Pseudomonas aeruginosa. The data set can be described thus: microbe, parasite or virus in culture. As to conditions: ATCC 27853.
Description: Antibacterial activity against Pseudomonas aeruginosa ATCC 27853 after overnight incubation by photometric method
The subject of the next data set is Streptococcus agalactiae. Put plainly: Antibacterial activity against Streptococcus agalactiae group B ATCC 12386 after overnight incubation by photometric method. The data set is classed as functional.
Data set [3] deals with Escherichia coli. Put plainly: microbe, parasite or virus in culture. As to conditions: ATCC 25922.
Description: Antibacterial activity against Escherichia coli ATCC 25922 after overnight incubation by photometric method
For data set [4], the system named is Staphylococcus epidermidis. Put plainly: Inhibition of biofilm formation in Staphylococcus epidermidis at 50 ug/ml after overnight incubation by crystal violet staining based method. The data set is classed as functional.
Data set [5] relates to Pseudomonas aeruginosa. The data set can be described thus: Antibacterial activity against Pseudomonas aeruginosa ATCC 27853 at 50 ug/ml after overnight incubation by photometric method. The data set is classed as functional.
Data set [6] has as its system Enterococcus faecalis. The data set can be described thus: Antibacterial activity against Enterococcus faecalis ATCC 29212 at 50 ug/ml after overnight incubation by photometric method. The data set is classed as functional.
Data set [7] has as its system Escherichia coli. The data set can be described thus: Antibacterial activity against Escherichia coli ATCC 25922 at 50 ug/ml after overnight incubation by photometric method. The data set is classed as functional.

For the molecule `CN(C)CCc1cn(Cc2cc(C(F)(F)F)cc(C(F)(F)F)c2)nn1.Cl`, the Activity entry in the data set with MRC5 is listed as “Non-Toxic”.

Regarding `Cl.NCCc1cn(Cc2ccccc2)nn1`, the Activity entry with MRC5 was “Non-Toxic”.

Consider `CCCCCCCOc1ccc(-n2cc(CCCN)nn2)cc1.Cl`, for which the MIC against Staphylococcus aureus stood at 16 µg/mL; with Enterococcus faecalis [1] it was 16 µg/mL; against Pseudomonas aeruginosa [2] it was 16 µg/mL; in the data set on Streptococcus agalactiae it was 8 µg/mL; against Escherichia coli [3], 8 µg/mL.

Consider `Cl.N=C(N)NCCc1cn(Cc2cc(C(F)(F)F)cc(C(F)(F)F)c2)nn1`, for which the Activity result in the data set with MRC5 was “Non-Toxic”.

Regarding `CC(C)(C)c1cc(Cn2cc(CCNC(=N)N)nn2)cc(C(C)(C)C)c1.Cl`, the MIC against Staphylococcus aureus was 20 µg/mL; against Enterococcus faecalis [1], 40 µg/mL; with Pseudomonas aeruginosa [2], 40 µg/mL; against Streptococcus agalactiae, 10 µg/mL; in the data set on Escherichia coli [3], 50 µg/mL. In data set [4], the “biofilm formation inhibition (active/not active)” value is “Active”. Moreover, the Activity entry in the data set on MRC5 is reported as “Non-Toxic”.

For `Cl.NCCc1cn(Cc2ccc3ccccc3c2)nn1`, the Activity result in the data set on MRC5 was “Non-Toxic”.

`CN(C)CCCc1cn(Cc2ccc3ccccc3c2)nn1.Cl`: the Activity entry with MRC5 is “Non-Toxic”.

As to `Cl.N=C(N)NCCCc1cn(Cc2ccc3ccccc3c2)nn1`, the “biofilm formation inhibition (active/not active)” value in [4] was “Active”. In addition, the Activity entry in the data set with MRC5 is given as “Non-Toxic”.

On to `CC(C)(C)c1cc(-n2cc(CCCNC(=N)N)nn2)cc(C(C)(C)C)c1.Cl`, for which the MIC in the data set on Staphylococcus aureus was found to be 4 µg/mL; in the data set with Enterococcus faecalis [1], 16 µg/mL; in the data set on Pseudomonas aeruginosa [2], 16 µg/mL; in the data set on Streptococcus agalactiae, 4 µg/mL; in the data set on Escherichia coli [3], 16 µg/mL.

Turning to `CN(C)CCc1cn(Cc2cc(C(C)(C)C)cc(C(C)(C)C)c2)nn1.Cl`, the “biofilm formation inhibition (active/not active)” value in data set [4] is “Active”. Moreover, the Activity entry in the data set with MRC5 is reported as “Non-Toxic”.

For the molecule `CC(C)(C)c1cc(Cn2cc(CCCNC(=N)N)nn2)cc(C(C)(C)C)c1.Cl`, the MIC in the data set with Staphylococcus aureus was determined as 10 µg/mL; in the data set on Enterococcus faecalis [1], 40 µg/mL; in the data set with Pseudomonas aeruginosa [2] it was 40 µg/mL; against Streptococcus agalactiae, 10 µg/mL; against Escherichia coli [3], 40 µg/mL. In addition, the “biofilm formation inhibition (active/not active)” value in data set [4] is “Active”. Moreover, the Activity entry with MRC5 was “Non-Toxic”.

With `CN(C)CCCc1cn(Cc2cc(C(C)(C)C)cc(C(C)(C)C)c2)nn1.Cl`, the MIC against Staphylococcus aureus worked out at 40 µg/mL; against Streptococcus agalactiae it was 50 µg/mL. For the same molecule, the “biofilm formation inhibition (active/not active)” value in data set [4] was “Active”. In the data set on MRC5, the Activity entry was “Non-Toxic”. For the same molecule, the outcome with Pseudomonas aeruginosa [5], in the data set on Enterococcus faecalis [6] and with Escherichia coli [7] was inactive.

Regarding `Cl.NCCc1cn(Cc2cc(C(F)(F)F)cc(C(F)(F)F)c2)nn1`, the Activity result with MRC5 is “Non-Toxic”.

Turning to `CN(C)CCc1cn(Cc2ccc3ccccc3c2)nn1.Cl`, the Activity entry in the data set with MRC5 is “Non-Toxic”.

Regarding `Cl.N=C(N)NCCCc1cn(Cc2cc(C(F)(F)F)cc(C(F)(F)F)c2)nn1`, the Activity result in the data set on MRC5 is recorded as “Non-Toxic”.

On to `Cl.NCCCc1cn(Cc2ccc3ccccc3c2)nn1`, for which the Activity entry in the data set with MRC5 is given as “Non-Toxic”.

`CN(C)CCc1cn(Cc2ccccc2)nn1.Cl`: the Activity entry in the data set with MRC5 is “Non-Toxic”.

For the molecule `Cl.NCCCc1cn(Cc2ccccc2)nn1`, in the data set with MRC5, the Activity entry was “Non-Toxic”.

For the molecule `CC(C)(C)c1cc(Cn2cc(CCCN)nn2)cc(C(C)(C)C)c1.Cl`, in data set [4], the “biofilm formation inhibition (active/not active)” value is “inactive”. Also, the Activity entry with MRC5 was “Non-Toxic”.

In the case of `Cl.N=C(N)NCCCc1cn(Cc2ccccc2)nn1`, the Activity entry in the data set with MRC5 is on record as “Non-Toxic”.

`Cl.N=C(N)NCCc1cn(Cc2ccccc2)nn1`: the Activity result with MRC5 is “Non-Toxic”.

In the case of `CC(C)(C)c1cc(-n2cc(CCCN)nn2)cc(C(C)(C)C)c1.Cl`, the MIC stood at 16 µg/mL against Staphylococcus aureus; 32 µg/mL against Enterococcus faecalis [1]; 32 µg/mL with Pseudomonas aeruginosa [2]; 16 µg/mL with Streptococcus agalactiae; 16 µg/mL against Escherichia coli [3].

In the case of `CN(C)CCCc1cn(Cc2ccccc2)nn1.Cl`, the Activity entry with MRC5 was “Non-Toxic”.

Turning to `Cl.NCCCc1cn(Cc2cc(C(F)(F)F)cc(C(F)(F)F)c2)nn1`, the Activity result in the data set on MRC5 is “Non-Toxic”.

In the case of `CCCCCCCOc1ccc(-n2cc(CCCNC(=N)N)nn2)cc1.Cl`, the MIC in the data set on Staphylococcus aureus was 4 µg/mL; against Enterococcus faecalis [1], 8 µg/mL; against Pseudomonas aeruginosa [2], 8 µg/mL; in the data set on Streptococcus agalactiae, 4 µg/mL; in the data set with Escherichia coli [3], 8 µg/mL.

In the case of `CN(C)CCCc1cn(Cc2cc(C(F)(F)F)cc(C(F)(F)F)c2)nn1.Cl`, in the data set on MRC5, the Activity result is “Non-Toxic”.

In the case of `Cl.N=C(N)NCCc1cn(Cc2ccc3ccccc3c2)nn1`, in the data set with MRC5, the Activity entry is on record as “Non-Toxic”.

For GENTAMICIN, the MIC against Staphylococcus aureus was 0.13 µg/mL; in the data set on Enterococcus faecalis [1], 10 µg/mL; in the data set on Streptococcus agalactiae, 4 µg/mL.

For the molecule `CC(C)(C)c1cc(Cn2cc(CCN)nn2)cc(C(C)(C)C)c1.Cl`, the MIC in the data set on Staphylococcus aureus came to 40 µg/mL; in the data set with Pseudomonas aeruginosa [2], 50 µg/mL; in the data set with Streptococcus agalactiae it was 40 µg/mL; in the data set with Escherichia coli [3], 40 µg/mL. Further, the “biofilm formation inhibition (active/not active)” value in data set [4] was “Active”. Further, the Activity entry with MRC5 is given as “Non-Toxic”. The outcome with Enterococcus faecalis [6] was inactive.

The record behind these values is ChEMBL document CHEMBL3994659, “Synthesis and antimicrobial evaluation of cationic low molecular weight amphipathic 1,2,3-triazoles” (Bioorg Med Chem Lett, 2017).
